Measurements as given in patent publication US20220133722A1, “PHARMACEUTICAL COMPOSITIONS” (QUE ONCOLOGY PTY LTD, priority 2019, published 2022).
Where “and” joins values, the source holds several entries; their conditions need not be identical. Equal entries are not always repeated. Where two headings read alike, the source gives them in different places.

Assay: Part 1 PK study: single oral 200 mg dose, fed (high-fat meal) versus fasted
Format: in vivo, human
Conditions: for Vd/F: read-out: Vz/F
Method: Part 1 involved analysing the PK parameters obtained following single oral administration of 200 mg tablets of a compound of formula (Ia) in free base form to 12 healthy female subjects following either fed (high-fat meal) or fasted conditions.
For Part 1 • Cmax maximum plasma concentration (observed) • Tmax time to reach the maximum plasma concentration (observed) • Clast last observed quantifiable concentration in plasma • Tlast time of last observed quantifiable concentration in plasma • AUC0-last area under the plasma concentration-time curve from time 0 to the time of the last quantifiable concentration • AUCinf area under the plasma concentration-time curve from time 0 to infinite time, calculated as the sum of AUClast and Clast/kel • % AUCexp percent of AUC extrapolated between AUC0-last and AUCinf • kel apparent terminal elimination rate constant • t1/2 elimination half-life associated with the terminal slope (kel) of the semilogarithmic drug concentration-time curve, calculated as 0.693/kel • CL/F apparent total body clearance of a drug from the plasma calculated by: CL/F=Dose/AUCinf • Vz/F apparent volume of distribution at steady state calculated by: V/F=[…]
An initial dose was administered on Day 1 followed by collection of samples for PK analysis for 96 hours. PK blood samples were taken pre-dose and 0.25, 0.5, 1.0, 1.5, 2, 3, 4, 8, 10, 12, 16, 24, 36, 48, 60, 72 and 96 hours post-dose, and urine samples were taken at 0-4, 4-8, 8-12, 12-24 and 24-48 hours. Ten days after the initial dose of study drug (Day 11), a second dose of drug was administered followed by collection of PK samples. Subjects completed the End-of-Study Visit (EOS) on Day 18, 7 days after the last dose of study drug.
Subjects selected for participation checked into the clinical unit and were randomized (on the morning of Day 1) to food state for study treatment; one half received study drug in the fed state first followed by fasted state for the second dose while the other half received study drug in the fasted state first followed by fed state. Prior to dosing on Day 1, all subjects fasted for a minimum of 10 hours overnight. On the morning of Day 1, subjects dosed in the fed state received the study drug within 10 min of completing a high fat breakfast. […] Plasma and urine samples were collected as set out above for the PK analysis. Subjects remained in the clinic for study procedures and blood draws before checking out after completion of study procedures on the morning of Day 4 (i.e., 72 hours post-dose) returning for the final PK blood draw on Day 5 at 96 hr post-dose. After the first single dose of study drug, subjects completed a 10-day washout period, returning to the clinical unit for check-in on Day 10. Subjects fasted overnight, receiving the second dose of study drug in the fed or fasted state on the morning of Day 11. Subjects were discharged from the clinic after the collection of the final 72-hr PK sample returning the next day for the 96 hr blood draw.
For both Parts 1 and 2, samples were processed and analysed as follows. The method extracted Q-122 and the Internal Standard (IS, Q-122 ^13C4) from human plasma using protein precipitation extraction.
The analytes were separated by HPLC on a Phenomenex Synergi Polar-RP column, and the eluates monitored by an API4000 MS/MS detector in positive MRM mode. The extract was then assayed against a calibration curve. The data were acquired and processed by the data acquisition system Analyst® (Sciex) linked directly to the API4000 MS/MS detector and then processed in Watson LIMS™ (Thermo Scientific), where applicable. The method range is from 10.0 to 2500 ng/mL using 50 μL of matrix and has a run time of approximately 3.2 minutes per sample.
Plasma PK parameters for each dosing regimen and dose level were calculated from the concentrations of Q-122 and its major metabolites measured in pre-dose and post-dose plasma samples. […]

[1] = female, human, plasma, po, 200 mg, single oral 200 mg, fasted, mean
[2] = female, human, plasma, po, 200 mg, single oral 200 mg, fasted, median
[3] = female, human, plasma, po, 200 mg, single oral 200 mg, fed (high-fat meal), mean
[4] = female, human, plasma, po, 200 mg, single oral 200 mg, fed (high-fat meal), median
[5] = single dose 200 mg, fed versus fasted
[6] = single oral 200 mg, fasted, individual subjects
[7] = single oral 200 mg, fasted, max
[8] = single oral 200 mg, fasted, mean
[9] = single oral 200 mg, fasted, median
[10] = single oral 200 mg, fasted, min
[11] = single oral 200 mg, fed (high-fat meal), individual subjects
[12] = single oral 200 mg, fed (high-fat meal), max
[13] = single oral 200 mg, fed (high-fat meal), mean
[14] = single oral 200 mg, fed (high-fat meal), median
[15] = single oral 200 mg, fed (high-fat meal), min
[16] = single oral dose 200 mg, healthy subjects

c1cnc(NCc2ccc(CNc3ncccn3)cc2)nc1 [Q-122]
bioavailability with a fatty meal (200 mg, with fatty meal versus fasted): increase in bioavailability
Tmax (female, human, plasma, oral, 200 mg, single dose 200 mg, fasted, subject 101009 omitted, read-out: Tmax (range over subjects)): 0.5 to 2 h
Tmax (female, human, plasma, oral, 200 mg, single dose 200 mg, fasted, read-out: Tmax (range over subjects)): 0.5 to 8 h
Tmax (female, human, plasma, oral, 200 mg, single dose 200 mg, fed, read-out: Tmax (range over subjects)): 0.5 to 10 h
AUC(0-inf) [1]: 7380 ng·h/mL
AUC(0-t) [1]: 6400 ng·h/mL
half-life [1]: 21.4 h
Cmax (female, human, plasma, po, 200 mg, single oral 200 mg, fasted, mean, read-out: Cmax): 620 ng/mL
Tmax (female, human, plasma, po, 200 mg, single oral 200 mg, fasted, mean, read-out: Tmax): 1.75 h
Vd/F [1]: 874 L
AUC(0-inf) [2]: 7390 ng·h/mL
AUC(0-t) [2]: 6330 ng·h/mL
half-life [2]: 23 h
Cmax (female, human, plasma, po, 200 mg, single oral 200 mg, fasted, median, read-out: Cmax): 613 ng/mL
Tmax (female, human, plasma, po, 200 mg, single oral 200 mg, fasted, median, read-out: Tmax): 1.25 h
Vd/F [2]: 798 L
AUC(0-t) [3]: 10200 ng·h/mL
half-life [3]: 12.3 h
Cmax (female, human, plasma, po, 200 mg, single oral 200 mg, fed (high-fat meal), mean, read-out: Cmax): 987 ng/mL
Tmax (female, human, plasma, po, 200 mg, single oral 200 mg, fed (high-fat meal), mean, read-out: Tmax): 6.23 h
Vd/F [3]: 404 L
AUC(0-inf) [4]: 11800 ng·h/mL
AUC(0-t) [4]: 11300 ng·h/mL
half-life [4]: 8.98 h
Cmax (female, human, plasma, po, 200 mg, single oral 200 mg, fed (high-fat meal), median, read-out: Cmax): 929 ng/mL
Tmax (female, human, plasma, po, 200 mg, single oral 200 mg, fed (high-fat meal), median, read-out: Tmax): 8 h
Vd/F [4]: 233 L
increase in mean AUC after food [5]: 1.6 fold
increase in mean Cmax after food [5]: 1.6 fold
change of Cmax and AUC0-last following food (single dose 200 mg, fed versus fasted, per subject): approximately doubled in 6 out of 11 subjects
% AUCexp [6]: 4.3% and 10.3% and 9.1% (2×) and 2.7% and 13.4% and 12.6% and 11.3% and 30.9% and 5.9% and 3.1%
AUC0-last [6]: 5881.1 ng·h/mL and 9258.3 ng·h/mL and 7702.0 ng·h/mL and 8375.7 ng·h/mL and 4924.9 ng·h/mL and 5410.8 ng·h/mL and 6774.9 ng·h/mL and 3631.6 ng·h/mL and 5150.3 ng·h/mL and 9154.4 ng·h/mL and 6812.7 ng·h/mL and 3704.2 ng·h/mL
AUCinf [6]: 6144.8 ng·h/mL and 10317.1 ng·h/mL and 8470.5 ng·h/mL and 8608.7 ng·h/mL and 5415.4 ng·h/mL and 6250.2 ng·h/mL and 7756.0 ng·h/mL and 4092.4 ng·h/mL and 9726.1 ng·h/mL and 7031.1 ng·h/mL
Cl/F [6]: 32.55 L/h and 19.39 L/h and 23.61 L/h and 23.23 L/h and 36.93 L/h and 32.00 L/h and 25.79 L/h and 48.87 L/h and 20.56 L/h and 28.45 L/h
Clast [6]: 15.50 ng/mL and 26.40 ng/mL and 16.30 ng/mL (2×) and 11.70 ng/mL and 14.20 ng/mL and 22.40 ng/mL and 30.90 ng/mL and 17.70 ng/mL and 39.70 ng/mL and 11.40 ng/mL and 22.00 ng/mL
Cmax [6]: 611.00 ng/mL and 801.00 ng/mL and 676.00 ng/mL and 1010.00 ng/mL and 103.00 ng/mL and 516.00 ng/mL and 668.00 ng/mL and 403.00 ng/mL and 559.00 ng/mL and 1050.00 ng/mL and 615.00 ng/mL and 422.00 ng/mL
Tlast [6]: 48.00 h and 96.00 h (3×) and 60.00 h (5×) and 72.00 h (2×) and 24.00 h
Tmax [6]: 1.00 h and 1.50 h and 0.50 h
kel [6]: 0.059 1/h and 0.025 1/h and 0.021 1/h and 0.050 1/h and 0.029 1/h (2×) and 0.027 1/h and 0.031 1/h and 0.038 1/h and 0.052 1/h
t1/2 [6]: 11.79 h and 27.80 h and 32.68 h and 13.80 h and 23.94 h and 25.98 h and 22.01 h and 18.04 h and 24.31 h and 13.28 h
% AUCexp [7]: 30.9%
AUC0-last [7]: 9258.3 ng·h/mL
AUCinf [7]: 10317.1 ng·h/mL
Cl/F [7]: 48.87 L/h
Clast [7]: 39.70 ng/mL
Cmax [7]: 1050.00 ng/mL
Tlast [7]: 96.00 h
kel [7]: 0.059 h⁻¹
t1/2 [7]: 32.68 h
% AUCexp [8]: 10.23%
Cl/F [8]: 29.137 L/h
Clast [8]: 20.375 ng/mL
Tlast [8]: 67.000 h
kel [8]: 0.0361 h⁻¹
% AUCexp [9]: 9.07%
Cl/F [9]: 27.12 L/h
Clast [9]: 17.00 ng/mL
Tlast [9]: 60.00 h
kel [9]: 0.0302 h⁻¹
% AUCexp [10]: 2.7%
AUC0-last [10]: 3631.6 ng·h/mL
AUCinf [10]: 4092.4 ng·h/mL
Cl/F [10]: 19.39 L/h
Clast [10]: 11.40 ng/mL
Cmax [10]: 103.00 ng/mL
Tlast [10]: 24.00 h
Tmax [10]: 0.50 h
kel [10]: 0.021 h⁻¹
t1/2 [10]: 11.79 h
% AUCexp [11]: 0.8% and 4.7% and 7.5% and 2.0% and 1.3% and 5.9% and 1.6% (2×) and 1.7% and 0.9% and 1.5%
AUC0-last [11]: 11087.2 ng·h/mL and 12782.0 ng·h/mL and 4088.9 ng·h/mL and 8498.9 ng·h/mL and 12043.9 ng·h/mL and 7713.8 ng·h/mL and 11821.5 ng·h/mL and 12551.6 ng·h/mL and 14254.9 ng·h/mL and 6505.3 ng·h/mL
AUCinf [11]: 11171.4 ng·h/mL and 13417.1 ng·h/mL and 4422.3 ng·h/mL and 12197.9 ng·h/mL and 8201.3 ng·h/mL and 11516.0 ng·h/mL and 12030.1 ng·h/mL and 12760.3 ng·h/mL and 14389.6 ng·h/mL and 6606.2 ng·h/mL
Cl/F [11]: 17.90 L/h and 14.91 L/h and 45.22 L/h and 16.40 L/h and 24.39 L/h and 17.37 L/h and 16.62 L/h and 15.67 L/h and 13.90 L/h and 30.27 L/h
Clast [11]: 11.00 ng/mL and 14.70 ng/mL and 11.20 ng/mL and 34.20 ng/mL and 15.10 ng/mL and 16.70 ng/mL and 21.50 ng/mL and 15.40 ng/mL and 13.60 ng/mL and 10.90 ng/mL and 12.20 ng/mL
Cmax [11]: 1520.00 ng/mL and 1180.00 ng/mL and 267.00 ng/mL and 797.00 ng/mL and 603.00 ng/mL and 1400.00 ng/mL and 914.00 ng/mL and 1240.00 ng/mL and 1230.00 ng/mL and 779.00 ng/mL
Tlast [11]: 36.00 h (3×) and 96.00 h (2×) and 24.00 h and 48.00 h (4×) and 60.00 h
Tmax [11]: 0.50 h and 10.00 h
kel [11]: 0.131 1/h and 0.023 1/h and 0.034 1/h (2×) and 0.098 1/h and 0.114 1/h and 0.074 1/h and 0.065 1/h and 0.081 1/h and 0.121 1/h
t1/2 [11]: 5.30 h and 29.71 h and 20.63 h and 7.07 h and 20.23 h and 6.08 h and 9.39 h and 10.63 h and 8.57 h and 5.73 h
% AUCexp [12]: 7.5%
AUC0-last [12]: 14254.9 ng·h/mL
AUCinf [12]: 14389.6 ng·h/mL
Cl/F [12]: 45.22 L/h
Clast [12]: 34.20 ng/mL
Cmax [12]: 1520.00 ng/mL
Tlast [12]: 96.00 h
Tmax [12]: 10.00 h
kel [12]: 0.131 h⁻¹
t1/2 [12]: 29.71 h
% AUCexp [13]: 2.70%
Cl/F [13]: 21.266 L/h
Clast [13]: 16.045 ng/mL
Tlast [13]: 52.364 h
kel [13]: 0.0775 h⁻¹
% AUCexp [14]: 1.64%
Cl/F [14]: 17.00 L/h
Clast [14]: 14.70 ng/mL
Tlast [14]: 48.00 h
kel [14]: 0.0774 h⁻¹
% AUCexp [15]: 0.8%
AUC0-last [15]: 4088.9 ng·h/mL
AUCinf [15]: 4422.3 ng·h/mL
Cl/F [15]: 13.90 L/h
Clast [15]: 10.90 ng/mL
Cmax [15]: 267.00 ng/mL
Tlast [15]: 24.00 h
Tmax [15]: 0.50 h
kel [15]: 0.023 h⁻¹
t1/2 [15]: 5.30 h
increase of mean AUC0-inf by a high-fat meal compared to the fasted state [16]: ~45%
increase of mean Cmax by a high-fat meal compared to the fasted state [16]: about 60%
